Laboratory results from patent US20070004763A1, “AMINOQUINOLINE AND AMINOQUINAZOLINE KINASE MODULATORS” (priority 2005, published 2007).

Target: T1, TrkB (Homo sapiens, UniProt Q16620)
T1 construct: purchased Upstate 14-507M
Assay: Trk B Fluorescence Polarization Kinase Assay
Assay type: biochemical
Conditions: 150 uM ATP, 50 nM TrkB; uncertainty ±10%
Method: The compounds of the present invention are also specific inhibitors of TrkB. Selection of preferred compounds of Formula I for use as TrkB inhibitors was performed in the following manner. The TrkB assay utilized the fluorescein-labeled phosphopeptide and the anti-phosphotyrosine antibody included in the Panvera Phospho-Tyrosine Kinase Kit (Green) supplied by Invitrogen. When TrkB phosphorylated poly Glu4Tyr, the fluorescein-labeled phosphopeptide was displaced from the anti-phosphotyrosine antibody by the phosphorylated poly Glu4Tyr, thus decreasing the FP value. The TrkB kinase reaction was incubated at room temperature for 30 minutes under the following conditions: 50 nM TrkB (Upstate, catalog #14-507M), 20 ug/mL poly Glu4Tyr, 150 uM ATP, 5 mM MgCl2, 1% compound in DMSO. The kinase reaction was stopped with the addition of EDTA. The fluorescein-labeled phosphopeptide and the anti-phosphotyrosine antibody were added and incubated for 30 minutes at room temperature. Data points were an average of triplicate samples. Inhibition and IC50 data analysis were done with GraphPad Prism using a non-linear regression fit with a multiparamater, sigmoidal dose-response (variable slope) equation.

T1 sequence (Q16620 526-822 limits assumed): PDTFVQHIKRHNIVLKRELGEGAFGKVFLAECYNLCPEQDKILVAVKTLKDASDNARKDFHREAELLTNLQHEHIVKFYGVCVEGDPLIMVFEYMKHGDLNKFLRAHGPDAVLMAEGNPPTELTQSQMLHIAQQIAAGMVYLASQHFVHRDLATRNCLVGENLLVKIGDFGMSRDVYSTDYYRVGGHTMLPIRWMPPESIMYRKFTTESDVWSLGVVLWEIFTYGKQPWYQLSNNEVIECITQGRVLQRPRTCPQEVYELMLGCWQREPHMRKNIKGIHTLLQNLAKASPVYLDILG

| Structure (SMILES) | IC50 |
| --- | --- |
| COc1cc2ncnc(N3CCCC(COC(=O)Nc4ccc(C(C)C)cc4)C3)c2cc1OC (stereo not shown) [Compound 4] | 8.4 µM |
| COc1cc2ncnc(N3CCC(OC(=O)Nc4ccc(OC5CCC5)nc4)CC3)c2cc1OC [Compound 11, (6-Cyclobutoxy-pyridin-3-yl)-carbamic acid 1-(6,7-dimethoxy-quinazolin-4-yl)-piperidin-4-yl ester] | 8.6 µM |
| COc1cc2ncnc(N3CCC(OC(=O)Nc4ccc(OC5CCC5)nc4)C3)c2cc1OC (stereo not shown) [Compound 12, (6-Cyclobutoxy-pyridin-3-yl)-carbamic acid 1-(6,7-dimethoxy-quinazolin-4-yl)-pyrrolidin-3-yl ester] | 21.7 µM |
| COc1cc2ncnc(N3CCC(OC(=O)Nc4ccc(OC(C)C)cc4)C3)c2cc1OC (stereo not shown) [Compound 15, (4-Isopropoxy-phenyl)-carbamic acid 1-(6,7-dimethoxy-quinazolin-4-yl)-pyrrolidin-3-yl ester] | 12.5 µM |
| CC(C)c1ccc(NC(=O)OC2CCN(c3ncnc4ccc(I)cc34)C2)cc1 (stereo not shown) [Compound 20, (4-Isopropyl-phenyl)-carbamic acid 1-(6-iodo-quinazolin-4-yl)-pyrrolidin-3-yl ester] | 13.1 µM |
| COc1cc2ncnc(N3CCC(NC(=O)Cc4ccc(C(C)C)cc4)CC3)c2cc1OC [Compound 21, N-[1-(6,7-Dimethoxy-quinazolin-4-yl)-piperidin-4-yl]-2-(4-isopropyl-phenyl)-acetamide] | 11.2 µM |
| COc1cc2ncc(C#N)c(N3CCC(NC(=O)Nc4ccc(C(C)C)cc4)C3)c2cc1OC (stereo not shown) [Compound 26, 1-[1-(3-Cyano-6,7-dimethoxy-quinolin-4-yl)-pyrrolidin-3-yl]-3-(4-isopropyl-phenyl)-urea] | 10.9 µM |
| CC(C)c1ccc(NC(=O)NC2CCN(c3ccnc4ccccc34)C2)cc1 (stereo not shown) [Compound 27, (4-Isopropyl-phenyl)-3-(1-quinolin-4-yl)-pyrrolidin-3-yl-urea] | 7.7 µM |
| COc1cc2ncc(C#N)c(N3CCC(NC(=O)Nc4ccc(OC(C)C)cc4)C3)c2cc1OC (stereo not shown) [Compound 29, 1-[1-(3-Cyano-6,7-dimethoxy-quinolin-4-yl)-pyrrolidin-3-yl]-3-(4-isopropoxy-phenyl)-urea] | 10.3 µM |
| COc1cc2ncc(C#N)c(N3CCC(OC(=O)Nc4ccc(C(C)C)cc4)C3)c2cc1OC (stereo not shown) [Compound 37, (4-Isopropyl-phenyl)-carbamic acid 1-(3-cyano-6,7-dimethoxy-quinolin-4-yl)-pyrrolidin-3-yl ester] | 8.48 µM |
| CC(C)Oc1ccc(NC(=O)NC2CCN(c3ccnc4ccccc34)C2)cc1 (stereo not shown) [Compound 38, (4-Isopropoxy-phenyl)-3-(1-quinolin-4-yl)-pyrrolidin-3-yl-urea] | 26.8 µM |
| CC(C)Oc1ccc(NC(=O)OC2CCN(c3ccnc4ccccc34)C2)cc1 (stereo not shown) [Compound 39] | 9.1 µM |
| COc1cc2ncc(C#N)c(N3CCC(OC(=O)Nc4ccc(OC(C)C)cc4)CC3)c2cc1OC [Compound 40, (4-Isopropoxy-phenyl)-carbamic acid 1-(3-cyano-6,7-dimethoxy-quinolin-4-yl)-piperidin-4-yl ester] | 11.8 µM |
| CC(C)Oc1ccc(NC(=O)OC2CCN(c3ccnc4ccccc34)CC2)cc1 [Compound 41] | 14 µM |
| COc1cc2ncc(C#N)c(N3CCC(OC(=O)Nc4ccc(C(C)C)cc4)CC3)c2cc1OC [Compound 42, (4-Isopropyl-phenyl)-carbamic acid 1-(3-cyano-6,7-dimethoxy-quinolin-4-yl)-piperidin-4-yl ester] | > 42 µM |
| COc1cc2ncnc(N3CCC(NC(=O)Nc4ccc(N5CCOCC5)cc4)C3)c2cc1OC (stereo not shown) [Compound 43, 1-[1-(6,7-Dimethoxy-quinazolin-4-yl)-pyrrolidin-3-yl]-3-(4-morpholin-4-yl-phenyl)-urea] | 40.6 µM |
| COc1cc2ncnc(N3CCC(NC(=O)Nc4ccc(OC5CCC5)nc4)C3)c2cc1OC (stereo not shown) [Compound 44, 1-(6-Cyclobutoxy-pyridin-3-yl)-3-[1-(6,7-dimethoxy-quinazolin-4-yl)-pyrrolidin-3-yl]-urea] | 4.88 µM |
| COc1cc2ncnc(N3CCC(NC(=O)Nc4ccc(OC5CCCC5)nc4)C3)c2cc1OC (stereo not shown) [Compound 45, 1-(6-Cyclopentyloxy-pyridin-3-yl)-3-[1-(6,7-dimethoxy-quinazolin-4-yl)-pyrrolidin-3-yl]-urea] | 11.8 µM |

More lines, in order of falling IC50, values ahead:

| IC50 | Structure (SMILES) |
| --- | --- |
| 7.6 µM | CC(C)c1ccc(NC(=O)OC2CCN(c3ccnc4ccccc34)C2)cc1 (stereo not shown) [Compound 34] |
| 6.5 µM | CC(C)c1ccc(NC(=O)OC2CCN(c3ccnc4ccccc34)CC2)cc1 [Compound 10] |
| 6.5 µM | COc1cc2ncnc(N3CCC(NC(=O)Cc4ccc(C(C)C)cc4)C3)c2cc1OC (stereo not shown) [Compound 35, N-[1-(6,7-Dimethoxy-quinazolin-4-yl)-pyrrolidin-3-yl]-2-(4-isopropyl-phenyl)-acetamide] |
| 5.8 µM | COc1cc2ncnc(N3CCC(OC(=O)Nc4ccc(OC(C)C)cc4)CC3)c2cc1OC [Compound 3, (4-Isopropoxy-phenyl)-carbamic acid 1-(6,7-dimethoxy-quinazolin-4-yl)-piperidin-4-yl ester] |
| 5.72 µM | COc1cc2ncnc(N3CCC(OC(=O)Nc4ccc(C(C)C)cc4)CC3)c2cc1OC [Compound 1, (4-Isopropyl-phenyl)-carbamic acid 1-(6,7-dimethoxy-quinazolin-4-yl)-piperidin-4-yl ester] |
| 5.5 µM | CC(C)c1ccc(NC(=O)OC2CCN(c3ncnc4ccccc34)C2)cc1 (stereo not shown) [Compound 24, (4-Isopropyl-phenyl)-carbamic acid 1-quinazolin-4-yl-pyrrolidin-3-yl ester] |
| 5.3 µM | COc1cc2ncc(C#N)c(N3CCC(OC(=O)Nc4ccc(OC(C)C)cc4)C3)c2cc1OC (stereo not shown) [Compound 32, (4-Isopropoxy-phenyl)-carbamic acid 1-(3-cyano-6,7-dimethoxy-quinolin-4-yl)-pyrrolidin-3-yl ester] |
| 5 µM | COc1cc2ncnc(N3CCCCC3COC(=O)Nc3ccc(C(C)C)cc3)c2cc1OC (stereo not shown) [Compound 33, (4-Isopropyl-phenyl)-carbamic acid 1-(6,7-dimethoxy-quinazolin-4-yl)-piperidin-2-ylmethyl ester] |
| 3.7 µM | COc1cc2ncnc(N3CCC(OC(=O)Nc4ccc(C(C)C)cc4)C3)c2cc1OC (stereo not shown) [Compound 2, (4-Isopropyl-phenyl)-carbamic acid 1-(6,7-dimethoxy-quinazolin-4-yl)-pyrrolidin-3-yl ester] |
| 3.65 µM | COc1cc2ncnc(N3CCC(NC(=O)Nc4ccc(OC(C)C)cc4)C3)c2cc1OC (stereo not shown) [Compound 8, 1-[1-(6,7-Dimethoxy-quinazolin-4-yl)-pyrrolidin-3-yl]-3-(4-isopropoxy-phenyl)-urea] |
| 3.6 µM | CCN(CC)CC#Cc1ccc2ncnc(N3CCC(OC(=O)Nc4ccc(C(C)C)cc4)C3)c2c1 (stereo not shown) [Compound 17, (4-Isopropyl-phenyl)-3-carbamic acid 1-[6-(3-diethylamino-prop-1-ynyl)-quinazolin-4-yl]-pyrrolidin-3-yl ester] |
| 2.4 µM | COc1cc2ncnc(N3CCC(CC(=O)Nc4ccc(C(C)C)cc4)CC3)c2cc1OC [Compound 5, 2-[1-(6,7-Dimethoxy-quinazolin-4-yl)-piperidin-4-yl]-N-(4-isopropyl-phenyl)-acetamide] |
| 2.4 µM | CC(C)c1ccc(NC(=O)NC2CCN(c3ncnc4ccccc34)C2)cc1 (stereo not shown) [Compound 16, 1-(4-Isopropyl-phenyl)-3-(1-quinazolin-4-yl-pyrrolidin-3-yl) urea] |
| 0.8 µM | COc1cc2ncnc(N3CCC(COC(=O)Nc4ccc(C(C)C)cc4)CC3)c2cc1OC [Compound 22, (4-Isopropyl-phenyl)-carbamic acid 1-(6,7-dimethoxy-quinazolin-4-yl)-piperidin-4-ylmethyl ester] |
| 0.55 µM | COc1cc2ncnc(N3CCC(C(=O)Nc4ccc(OC(C)C)cc4)CC3)c2cc1OC [Compound 23, 1-(6,7-Dimethoxy-quinazolin-4-yl)-piperidine-4-carboxylic acid (4-isopropoxy-phenyl)-amide] |
| 0.5 µM | COc1cc2ncnc(N3CCC(CNC(=O)Nc4ccc(C(C)C)cc4)CC3)c2cc1OC [Compound 18, 1-[1-(6,7-Dimethoxy-quinazolin-4-yl)-piperidin-4-ylmethyl]-3-(4-isopropyl-phenyl)-urea] |
| 0.4 µM | CC(C)c1ccc(NC(=O)OC2CCN(c3ncnc4ccc(C#CCO)cc34)C2)cc1 (stereo not shown) [Compound 14, (4-Isopropyl-phenyl)-carbamic acid 1-[6-(3-hydroxy-prop-1-ynyl)-quinazolin-4-yl]-pyrrolidin-3-yl ester] |
| 0.3 µM | COc1cc2ncnc(N3CCCC(NC(=O)Nc4ccc(C(C)C)cc4)C3)c2cc1OC (stereo not shown) [Compound 28, 1-[1-(6,7-Dimethoxy-quinazolin-4-yl)-piperidin-3-yl]-3-(4-isopropyl-phenyl)-urea] |
| 0.2 µM | COc1cc2ncnc(N3CCCC3COC(=O)Nc3ccc(C(C)C)cc3)c2cc1OC (stereo not shown) [Compound 9] |
| 0.2 µM | COc1cc2ncnc(N3CCCC(OC(=O)Nc4ccc(C(C)C)cc4)C3)c2cc1OC (stereo not shown) [Compound 31, (4-Isopropyl-phenyl)-carbamic acid 1-[1-(6,7-dimethoxy-quinazolin-4-yl)-piperidin-3-yl]ester] |
| 0.16 µM | COc1cc2ncnc(N3CCC(C(=O)Nc4ccc(C(C)C)cc4)CC3)c2cc1OC [Compound 13, 1-(6,7-Dimethoxy-quinazolin-4-yl)-piperidine-4-carboxylic acid (4-isopropyl-phenyl)-amide] |
| 0.1 µM | COc1cc2ncnc(N3CCC(CC(=O)Nc4ccc(C(C)C)cc4)C3)c2cc1OC (stereo not shown) [Compound 6, 2-[11-(6,7-Dimethoxy-quinazolin-4-yl)-pyrrolidin-3-yl]-N-(4-isopropyl-phenyl)-acetamide] |
